Test results taken from ChEMBL document CHEMBL3885881, “DrugMatrix”.

Organism: Rattus norvegicus
Assay: DrugMatrix - Regimen: Daily Repeat
Assay type: toxicity, organism-based, Sprague-Dawley
Parameters: regimen Daily Repeat, gender Male, age 6-8 weeks
Conditions: in vivo, po, route oral GAVAGE, vehicle 100 % WATER; for ABSOLUTE BASOPHIL / ABSOLUTE EOSINOPHIL / ABSOLUTE LYMPHOCYTE / ABSOLUTE MONOCYTE / ABSOLUTE SEGMENTED NEUTROPHIL / BASOPHIL / EOSINOPHIL / ERYTHROCYTE COUNT / HEMATOCRIT / HEMOGLOBIN / LEUKOCYTE COUNT / LYMPHOCYTE / MEAN CORPUSCULAR HEMOGLOBIN / MEAN CORPUSCULAR HEMOGLOBIN CONCENTRATION / MEAN CORPUSCULAR VOLUME / MONOCYTE / NEUTROPHIL / NUCLEATED RED BLOOD CELLS / PLATELET COUNT: tissue Blood; for ALANINE AMINOTRANSFERASE / ALBUMIN / ALKALINE PHOSPHATASE / ASPARTATE AMINOTRANSFERASE / BLOOD UREA NITROGEN / CARBON DIOXIDE / CHLORIDE / CHOLESTEROL / CREATINE PHOSPHOKINASE / CREATININE / GLUCOSE / LACTATE DEHYDROGENASE / LIPASE / PHOSPHORUS / POTASSIUM / SODIUM / TOTAL BILIRUBIN / TOTAL PROTEIN / URIC ACID: tissue Plasma
[1] = 0 mg/kg, 72 h, dose level Control, time 3 day
[2] = 0 mg/kg, 120 h, dose level Control, time 5 day
[3] = 19.5 mg/kg, 72 h, dose level Low, time 3 day

CN1CCC[C@H]1c1cccnc1 [NICOTINE]
ABSOLUTE BASOPHIL [1]: 0 CELLS/uL
ABSOLUTE EOSINOPHIL [1]: 0 CELLS/uL
ABSOLUTE LYMPHOCYTE [1]: 10386.33 CELLS/uL
ABSOLUTE MONOCYTE [1]: 88.5 CELLS/uL
ABSOLUTE SEGMENTED NEUTROPHIL [1]: 1008.5 CELLS/uL
BASOPHIL [1]: 0%
EOSINOPHIL [1]: 0%
ERYTHROCYTE COUNT [1]: 5.16 x10E6/uL
HEMATOCRIT [1]: 32.43%
HEMOGLOBIN [1]: 12.98 G/DL
LEUKOCYTE COUNT [1]: 11.48 x10E3/uL
LYMPHOCYTE [1]: 92.33%
MEAN CORPUSCULAR HEMOGLOBIN [1]: 25.23 pg
MEAN CORPUSCULAR HEMOGLOBIN CONCENTRATION [1]: 40.08 G/DL
MEAN CORPUSCULAR VOLUME [1]: 62.95 fL
MONOCYTE [1]: 0.67%
NEUTROPHIL [1]: 7%
NUCLEATED RED BLOOD CELLS [1]: 0 /100WBC
PLATELET COUNT [1]: 1016.67 x10E3/uL
ALANINE AMINOTRANSFERASE [1]: 62.17 u/L
ALBUMIN [1]: 3.95 G/DL
ALKALINE PHOSPHATASE [1]: 363.5 u/L
ASPARTATE AMINOTRANSFERASE [1]: 118 u/L
BLOOD UREA NITROGEN [1]: 14.5 mg/dL
CARBON DIOXIDE [1]: 22.83 mmol/L
CHLORIDE [1]: 100.67 MEQ/L
CHOLESTEROL [1]: 66 mg/dL
CREATINE PHOSPHOKINASE [1]: 1308.83 u/L
CREATININE [1]: 0.22 mg/dL
GLUCOSE [1]: 187.5 mg/dL
LACTATE DEHYDROGENASE [1]: 380.17 u/L
LIPASE [1]: 16.17 u/L
PHOSPHORUS [1]: 14.27 mg/dL
POTASSIUM [1]: 6.8 MEQ/L
SODIUM [1]: 142.53 MEQ/L
TOTAL BILIRUBIN [1]: 0.2 mg/dL
TOTAL PROTEIN [1]: 5.68 G/DL
URIC ACID [1]: 2.87 mg/dL
ABSOLUTE BASOPHIL [2]: 0 CELLS/uL
ABSOLUTE EOSINOPHIL [2]: 80 CELLS/uL
ABSOLUTE LYMPHOCYTE [2]: 13301.33 CELLS/uL
ABSOLUTE MONOCYTE [2]: 180.83 CELLS/uL
ABSOLUTE SEGMENTED NEUTROPHIL [2]: 1187.83 CELLS/uL
BASOPHIL [2]: 0%
EOSINOPHIL [2]: 0.5%
ERYTHROCYTE COUNT [2]: 5.54 x10E6/uL
HEMATOCRIT [2]: 35.65%
HEMOGLOBIN [2]: 14.22 G/DL
LEUKOCYTE COUNT [2]: 14.75 x10E3/uL
LYMPHOCYTE [2]: 90.67%
MEAN CORPUSCULAR HEMOGLOBIN [2]: 25.65 pg
MEAN CORPUSCULAR HEMOGLOBIN CONCENTRATION [2]: 39.88 G/DL
MEAN CORPUSCULAR VOLUME [2]: 64.35 fL
MONOCYTE [2]: 1%
NEUTROPHIL [2]: 7.83%
NUCLEATED RED BLOOD CELLS [2]: 0.17 /100WBC
PLATELET COUNT [2]: 1285.33 x10E3/uL
ALANINE AMINOTRANSFERASE [2]: 51.67 u/L
ALBUMIN [2]: 4.08 G/DL
ALKALINE PHOSPHATASE [2]: 391.5 u/L
ASPARTATE AMINOTRANSFERASE [2]: 99.5 u/L
BLOOD UREA NITROGEN [2]: 15.5 mg/dL
CARBON DIOXIDE [2]: 28.33 mmol/L
CHLORIDE [2]: 101.83 MEQ/L
CHOLESTEROL [2]: 67.83 mg/dL
CREATINE PHOSPHOKINASE [2]: 771.33 u/L
CREATININE [2]: 0.23 mg/dL
GLUCOSE [2]: 156.5 mg/dL
LACTATE DEHYDROGENASE [2]: 544.33 u/L
LIPASE [2]: 10.17 u/L
PHOSPHORUS [2]: 12.03 mg/dL
POTASSIUM [2]: 6.81 MEQ/L
SODIUM [2]: 144.13 MEQ/L
TOTAL BILIRUBIN [2]: 0.22 mg/dL
TOTAL PROTEIN [2]: 6 G/DL
URIC ACID [2]: 2.18 mg/dL
ABSOLUTE BASOPHIL [3]: 0 CELLS/uL
ABSOLUTE EOSINOPHIL [3]: 274 CELLS/uL
ABSOLUTE LYMPHOCYTE [3]: 12164.33 CELLS/uL
ABSOLUTE MONOCYTE [3]: 176.67 CELLS/uL
ABSOLUTE SEGMENTED NEUTROPHIL [3]: 1085 CELLS/uL
BASOPHIL [3]: 0%
EOSINOPHIL [3]: 2%
ERYTHROCYTE COUNT [3]: 5.66 x10E6/uL
HEMATOCRIT [3]: 36.1%
HEMOGLOBIN [3]: 14.13 G/DL
LEUKOCYTE COUNT [3]: 13.7 x10E3/uL
LYMPHOCYTE [3]: 88.67%
MEAN CORPUSCULAR HEMOGLOBIN [3]: 24.97 pg
MEAN CORPUSCULAR HEMOGLOBIN CONCENTRATION [3]: 39.17 G/DL
MEAN CORPUSCULAR VOLUME [3]: 63.73 fL
MONOCYTE [3]: 1.33%
NEUTROPHIL [3]: 8%
NUCLEATED RED BLOOD CELLS [3]: 0 /100WBC
PLATELET COUNT [3]: 1341.67 x10E3/uL
ALANINE AMINOTRANSFERASE [3]: 53.67 u/L
ALBUMIN [3]: 4.07 G/DL
ALKALINE PHOSPHATASE [3]: 372.67 u/L
ASPARTATE AMINOTRANSFERASE [3]: 86.33 u/L
BLOOD UREA NITROGEN [3]: 14 mg/dL
CARBON DIOXIDE [3]: 22 mmol/L
CHLORIDE [3]: 103 MEQ/L
CHOLESTEROL [3]: 69 mg/dL
CREATINE PHOSPHOKINASE [3]: 441.67 u/L
CREATININE [3]: 0.28 mg/dL
GLUCOSE [3]: 182.33 mg/dL
LACTATE DEHYDROGENASE [3]: 226.33 u/L
LIPASE [3]: 10.67 u/L
PHOSPHORUS [3]: 12.5 mg/dL
POTASSIUM [3]: 5.92 MEQ/L
SODIUM [3]: 144.87 MEQ/L
TOTAL BILIRUBIN [3]: 0.2 mg/dL
TOTAL PROTEIN [3]: 5.77 G/DL
URIC ACID [3]: 1.67 mg/dL
